Structures are written as SMILES. Structures can show the parent of a compound that is named as a salt.

The subject of one assay is epidermal growth factor receptor (HeLa cells). In words: Epidermal growth factor binding inhibition assay: 125I-EGF binding to HeLa cells after treatment with phototherapeutic and UVA. The assay is classed as cell-based, human. The settings on record: cells pulsed with 2.1 J/cm^2 of ultraviolet light (UVA, 320-400 nm) after treatment, 2 nM 125I-EGF, 2 h at 4° C., read-out: IC50, concentration of each compound inhibiting 125I-EGF binding to HeLa cells by 50%. From the text:
The primary in vitro screen for the phototherapeutics described herein is based on our discovery that beneficial phototherapeutics inhibit binding in cells of epithelial origin with epidermal growth factor (EGF). Furthermore, the degree of effective competition in this EGF binding assay relates to the phototherapeutic effect of the test agent. [J. Laskin, E. Lee, D. Laskin, M. Gallo, Proc. Nat. Acad. Sci. (U.S.A.) 83:8211 (1986)].
Inhibition of EGF binding is dependent on dose of the phototherapeutic and on the quanta of light in the 320-400 nm wavelength (ultraviolet light A). It is also structure-dependent, that is, there is a direct correlation between those specific phototherapeutics currently used that are clinically active and their ability to inhibit the binding of epidermal growth factor to its receptor.
The ability of the above compounds in the presence of ultraviolet light, to inhibit epidermal growth factor binding to its cell surface receptor is directly related to its phototherapeutic potential. To assay these compounds for this biological activity, human cells (HeLa) grown in vitro were used. Cells (1.8×10^4 /cm^2) were inoculated into 5 cm culture dishes in growth medium consisting of Dulbecco's modified Eagle's medium supplemented with 10% newborn calf serum. After 4-5 days at 37° C. in a humidified CO2 incubator, the cells were washed three times with 2 ml of phosphate buffered saline and then incubated with the different phototherapeutics in 2 ml of Earle's salt solution supplemented with 5.2 mM D-glucose/25 mM Hepes buffer, pH 7.2. Control cultures were incubated in 2 ml of Earle's salt solution in the absence of the test drugs. After 30 minutes, the cells were then exposed to ultraviolet light (UVA, 320-400 nm) emitted from a bank of four BLB fluorescent light tubes (F40BL/Sylvania) placed approximately 10 cm above the cell culture plates. The incident light delivered onto the culture plates was 3.4 mW per cm^2 as measured with an International Light UV-Radiometer and the cells received 2.1 J/cm^2 of UVA light. After this light exposure, the cells were rinsed with phosphate buffered saline and submitted for assay of epidermal growth factor binding. Phototherapeutic treated cells were then incubated for 2 hours at 4° C. with 2 ml of binding buffer (Dulbecco's modified Eagle's medium/25 mM Hepes buffer, pH 7.2) containing 2 nM labeled epidermal growth factor (^125 I-EGF, specific activity 200 Ci/g).
Nonspecific binding was determined by incubating separate plates of cells with buffer containing the radioligand and excess unlabeled epidermal growth factor (1 microgram/ml). The binding reaction of the radioligand to the cells was terminated by aspirating the binding buffer from the culture dishes and washing the cells four times with ice cold phosphate buffered saline. The cells were then solubilized with 2 ml of 0.2M NaOH and duplicate 0.5 ml aliquots were taken for gamma counting. Specific binding of epidermal growth factor to its receptor was calculated by subtracting nonspecifically bound material from the total. Under the conditions of the assay, specific epidermal growth factor receptor binding represented greater than 80% of the total bound to the cells.
As a specific example of this assay, HeLa cells were treated with 4',5'-dihydropsoralen, followed by ultraviolet light exposure and then by measurement for epidermal growth factor binding. The data can be presented as a curve of epidermal growth factor receptor binding to the cells as a percentage of untreated cells. FIG. 1 is an example of 125-I EGF binding inhibition of 4',5'-dihydropsoralen and UVA. The concentration inhibiting epidermal growth factor binding to the cells by 50% (the IC50 value) is determined from the curve.
*IC50, concentration of each compound inhibiting 125I-EGF binding to
**Following treatment of the cells with the phototherapeutic they were
***Highest concentration tested
As for `Cc1oc2c(C)c3oc(=O)cc(C)c3cc2c1C[N+](C)(C)C` [4'-[(N,N,N,-trimethylannonium)methyl]-4,5',8-trimethylpsoralen iodide salt], the IC50 came to 5 µM.
Take `Cc1cc(=O)oc2c(C)c3c(cc12)CC(C)O3` (stereo not drawn) [4,5',8-trimethyl-4',5'-dihydropsoralen]: the IC50 stood at 7 µM.
Still for that read-out and setting: in the case of `O=c1ccc2ccccc2o1` [coumarin, reference compound] it was more than 100 µM.

Staying with this assay, now noted: read-out: IC50, concentration of each compound inhibiting 125I-EGF binding to HeLa cells by 50%, cells pulsed with 2.1 J/cm^2 of ultraviolet light (UVA, 320-400 nm) after treatment, 2 nM 125I-EGF, 2 h at 4° C.
For the compound `CCOC(=O)c1cc2cc3c(cc2oc1=O)OCC3` [3-carboethoxy-4',5'-dihydropsoralen], the IC50 was 4.9 µM.
On to `Cc1c([N+](=O)[O-])c(=O)oc2c(C)c3c(cc12)CC(C)O3` (stereo not drawn) [3-nitro-4,5',8-trimethyl-4',5'-dihydropsoralen], for which the IC50 is 24 µM.
Still for that read-out and setting: in the case of `O=c1ccc2cc3c(cc2o1)OCC3` [4',5'-dihydropsoralen] it was 11 µM.
Take `Cc1cc(=O)oc2c(C)c3oc(CBr)c(Br)c3cc12` [4'-Bromo-5'-bromomethyl-4,8-dimethylpsoralen]: the IC50 turned out to be 3.6 µM.
As for `Cc1cc2cc3c(C)cc(=O)oc3c(C)c2o1` [4,5',8-trimethylpsoralen, reference compound], the IC50 stood at 6.6 µM.
As to `Cc1cc(=O)oc2c(C)c3oc(C[n+]4ccccc4)cc3cc12` [5'-[(N-Pyridinium)methyl]-4,8-dimethylpsoralen Bromide Salt], the IC50 was found to be 0.74 µM.
Take `Cc1cc(=O)oc2c(C)c3oc(CBr)cc3cc12` [5'-bromomethyl-4,8-dinethylpsoralen, 5'-Bromomethyl-4,8-dimethylpsoralen]: the IC50 was determined as 1.5 µM.
On to `COc1c2c(cc3oc(=O)ccc13)OCC2` [5-methoxy-4',5'-dihydropsoralen], for which the IC50 came out at 2.8 µM.
In the case of `COc1c2ccoc2cc2oc(=O)ccc12` [5-methoxypsoralen (5-MOP), 5-methoxypsoralen, reference compound], the IC50 was 1.6 µM.

For the origin of these results see US5473083A, “Reduced and quaternized psoralens as photo-activated therapeutics” (Lehigh University, priority 1994, dated 1995).
